Source: article PMC11435065, “Inhibition of P-Glycoprotein Asymmetrically Alters the In Vivo Exposure Profile of SGC003F: A Novel Guanylate Cyclase Stimulator” (Pharmaceuticals, 2024)
Where two headings read alike, the source gives them in different places.

Columns and labels:
[1] = Bidirectional transport across Caco-2 monolayer cells; assay type: in vitro ADME; conditions: human, Caco-2 cells, read-out: ER value (efflux ratio)
Method: LLC-PK1-MDR1, LLC-PK1-MOCK, and Caco-2 cells were seeded in 24-well Transwell cell plates at optimized densities. The medium was changed every other day for the LLC-PK1 cells and every day for the Caco-2 cells. The LLC-PK1 cells were cultured continuously for 4–7 days, while the Caco-2 cells were cultured continuously for 28–35 days in preparation for transport experiments. Prior to the experiment, TEER (transepithelial electrical resistance) values were measured using a cell resistance meter. For electrical measurements, two electrodes were used, with one electrode placed in the upper compartment and the other in the lower compartment and the electrodes were separated by the cellular monolayer. The measurement procedure included measuring the blank resistance (Rblank) of the semipermeable membrane only (without cells) and measuring the resistance across the cell layer on the semipermeable membrane (Rtotal). TEER values were achieved by calculating as TEER = (Rtotal − Rblank) × Marea in the unit of Ω·cm^2. […]
The apparent permeability rate value (Papp) of the monolayer cells was calculated according to Equation (5) Papp = (dQ/dt)/(A × C0)(5) where dQ/dt is the transport rate (µmol·s^−1); A is the insert surface area (0.33 cm^2); C0 is the initial concentration of the compound (µM).
Efflux rate (ER) was calculated according to Equation (6):ER = Papp B-A/PappA-B(6)

[2] = Plasma pharmacokinetics of SGC003F in rats with or without tariquidar; assay type: in vivo, rat; conditions: for clearance / AUC(0-t) / Vd / Tmax / half-life / Cmax / bioavailability: male, Sprague-Dawley, plasma; for Vd: read-out: Vss; for bioavailability: read-out: F (bioavailability)
Method: Adult Sprague Dawley rats (230–280 g) were obtained from Beijing Vital River Laboratory Animal Technology Co., Ltd. (Beijing, China). The animals were kept in a controlled environment with a 12 h light/dark cycle and stable temperature, and had free access to food and water, adapting for one week. All animal procedures were approved by the Experimental Animal Ethics Committee of Beijing Institute of Pharmacology and Toxicology (IACUC-DWZX-2023-P718).
SGC003F and tariquidar were dissolved in a solvent consisting of 11% isopropyl myristate, 74% polyethylene glycol 35 castor oil, and 15% diethylene glycol monoethyl ether. The stock solution concentrations were 1 mg/mL for SGC003F and 22.5 mg/mL for tariquidar. Next, the stock solution of SGC003F and tariquidar were diluted with saline at a ratio of 1:9 and 1:3.5, respectively, to achieve a working solution of SGC003F (0.1 mg/mL) and tariquidar (5 mg/mL) for oral and intravenous administration in rats.
Thirty-six male SD rats were randomly divided into 6 groups, with 6 rats in each group. Group I: SGC003F (p.o., 1 mg/kg) + blank vehicle (control group); Group II: SGC003F (p.o., 1 mg/kg) + tariquidar (i.v., 7.5 mg/kg); Group III: SGC003F (p.o., 1 mg/kg) + tariquidar (p.o., 15 mg/kg); Group IV: SGC003F (i.v., 1 mg/kg) + blank vehicle; Group V: SGC003F (i.v., 1 mg/kg) + tariquidar (i.v., 7.5 mg/kg); Group VI: SGC003F (i.v., 1 mg/kg) + tariquidar (p.o., 15 mg/kg). Oral administration required fasting for 12 h in advance and free access to water. At 0.033 (i.v.), 0.083, 0.25, 0.5, 1, 2, 4, 8, 12, and 24 h after administration, 100 μL of blood was collected intravenously and placed in heparin tubes. All blood samples were centrifuged at 2500× g for 10 min at 4 °C, and plasma was stored at −40 °C for analysis.
The main pharmacokinetic parameters, such as time to peak (tmax), half-life (t1/2), peak concentration (Cmax), and area under the curve (AUC), bioavailability (F), were calculated using a non-compartmental model with WinNonlin 8.1 software (Princeton, NJ, USA).
The elimination rate constant (ke or λz) was determined from the terminal phase of the concentration–time curve by using a semilogarithmic plot. Furthermore, the half-life (t1/2) was calculated according to this equation t1/2 = 0.693/ke(1)
Bioavailability (F) was calculated according to Equation (2):F = Dose(i.v.) × AUC(p.o.)/Dose(p.o.) × AUC(i.v.) × 100%(2)

[3] = rat, po, 1 mg/kg, SGC003F p.o. 1 mg/kg, single
[4] = rat, po, 1 mg/kg, SGC003F p.o. 1 mg/kg, with tariquidar i.v. 7.5 mg/kg
[5] = rat, po, 1 mg/kg, SGC003F p.o. 1 mg/kg, with tariquidar p.o. 15 mg/kg
[6] = rat, po, 1 mg/kg, rat plasma, SGC003F p.o. 1 mg/kg, single
[7] = rat, po, 1 mg/kg, rat plasma, SGC003F p.o. 1 mg/kg, with tariquidar i.v. 7.5 mg/kg
[8] = rat, po, 1 mg/kg, rat plasma, SGC003F p.o. 1 mg/kg, with tariquidar p.o. 15 mg/kg
[9] = rat plasma, SGC003F p.o. 1 mg/kg, tariquidar i.v. 7.5 mg/kg
[10] = rat plasma, SGC003F p.o. 1 mg/kg, tariquidar p.o. 15 mg/kg
[11] = rat, SGC003F i.v. 1 mg/kg, tariquidar i.v. 7.5 mg/kg
[12] = rat, SGC003F i.v. 1 mg/kg, tariquidar p.o. 15 mg/kg
[13] = rat, SGC003F p.o. 1 mg/kg, tariquidar i.v. 7.5 mg/kg
[14] = rat, SGC003F p.o. 1 mg/kg, tariquidar p.o. 15 mg/kg

- efflux ratio at 2 h, 2 µM [1]: 7.2
- clearance ([2]; rat, iv, 1 mg/kg, SGC003F i.v. 1 mg/kg, single): 2.18 mL/min/kg
- clearance ([2]; rat, iv, 1 mg/kg, SGC003F i.v. 1 mg/kg, with tariquidar i.v. 7.5 mg/kg): 2.03 mL/min/kg
- clearance ([2]; rat, iv, 1 mg/kg, SGC003F i.v. 1 mg/kg, with tariquidar p.o. 15 mg/kg): 1.49 mL/min/kg
- AUC(0-t) ([2]; rat, iv, 1 mg/kg, rat plasma, SGC003F i.v. 1 mg/kg, single): 7620 ± 560 ng·h/mL
- AUC(0-t) ([2]; rat, iv, 1 mg/kg, rat plasma, SGC003F i.v. 1 mg/kg, with tariquidar i.v. 7.5 mg/kg): 8170 ± 530 ng·h/mL
- AUC(0-t) ([2]; rat, iv, 1 mg/kg, rat plasma, SGC003F i.v. 1 mg/kg, with tariquidar p.o. 15 mg/kg): 11300 ng·h/mL
- Vd ([2]; rat, iv, 1 mg/kg, rat, SGC003F i.v. 1 mg/kg, single): 0.419 ± 0.0318 L/kg
- Vd ([2]; rat, iv, 1 mg/kg, rat, SGC003F i.v. 1 mg/kg, with tariquidar i.v. 7.5 mg/kg): 0.422 ± 0.0328 L/kg
- Vd ([2]; rat, iv, 1 mg/kg, rat, SGC003F i.v. 1 mg/kg, with tariquidar p.o. 15 mg/kg): 0.382 ± 0.0266 L/kg
- Tmax [2, 3]: 1.33 ± 0.52 h
- half-life [2, 3]: 207 ± 27.6 min
- Tmax [2, 4]: 1.5 ± 0.55 h
- half-life [2, 4]: 259 ± 54.6 min
- Tmax [2, 5]: 2.33 ± 1.37 h
- half-life [2, 5]: 261 ± 21 min
- AUC(0-t) [2, 6]: 3540 ± 610 ng·h/mL
- Cmax [2, 6]: 673 ± 187 ng/mL
- AUC(0-t) [2, 7]: 5690 ± 1080 ng·h/mL
- Cmax [2, 7]: 722 ± 111 ng/mL
- AUC(0-t) [2, 8]: 10800 ng·h/mL
- Cmax [2, 8]: 1430 ± 250 ng/mL
- bioavailability ([2]; rat, po, 1 mg/kg, rat, SGC003F p.o. 1 mg/kg, single): 46.4%
- bioavailability ([2]; rat, po, 1 mg/kg, rat, SGC003F p.o. 1 mg/kg, with tariquidar i.v. 7.5 mg/kg): 69.7%
- bioavailability ([2]; rat, po, 1 mg/kg, rat, SGC003F p.o. 1 mg/kg, with tariquidar p.o. 15 mg/kg): 95.1%
- bioavailability ([2]; rat, po, rat, SGC003F p.o. 1 mg/kg, with tariquidar p.o. 15 mg/kg): 95%
- AUC0-t, Ratio 1 (with Tar (i.v.)/single) ([2]; rat plasma, SGC003F i.v. 1 mg/kg, tariquidar i.v. 7.5 mg/kg): 1.07
- AUC0-t, Ratio 2 (with Tar (p.o.)/single) ([2]; rat plasma, SGC003F i.v. 1 mg/kg, tariquidar p.o. 15 mg/kg): 1.49
- AUC0-t, Ratio 1 (with Tar (i.v.)/single) [2, 9]: 1.61
- Cmax, Ratio 1 (with Tar (i.v.)/single) [2, 9]: 1.07
- AUC0-t, Ratio 2 (with Tar (p.o.)/single) [2, 10]: 3.05
- Cmax, Ratio 2 (with Tar (p.o.)/single) [2, 10]: 2.13
- CL, Ratio 1 (with Tar (i.v.)/single) [2, 11]: 0.93
- Vss, Ratio 1 (with Tar (i.v.)/single) [2, 11]: 1.00
- CL, Ratio 2 (with Tar (p.o.)/single) [2, 12]: 0.68
- Reduction of CL versus control group [2, 12]: 32%
- Vss, Ratio 2 (with Tar (p.o.)/single) [2, 12]: 0.91
- F, Ratio 1 (with Tar (i.v.)/single) [2, 13]: 1.50
- Tmax, Ratio 1 (with Tar (i.v.)/single) [2, 13]: 1.13
- t1/2, Ratio 1 (with Tar (i.v.)/single) [2, 13]: 1.25
- F, Ratio 2 (with Tar (p.o.)/single) [2, 14]: 2.05
- Tmax, Ratio 2 (with Tar (p.o.)/single) [2, 14]: 1.75
- t1/2, Ratio 2 (with Tar (p.o.)/single) [2, 14]: 1.26
Compound: COC(=O)Nc1c(N)nc(-c2nn(Cc3sccc3F)c3ncc(F)cc23)nc1N [SGC003F]
